Test results taken from US11542475B2, “3D microphysiologic system” (Northwestern University, priority 2014, dated 2023).

Experiments:
[1] = system: human fallopian fimbriae FTE; assay: 3D human fimbriae culture: FTE proliferation by BrdU labeling; format: cell-based; settings: insulin 5 μg/ml (ITS), H2O2 1 mM, E2 10 nM, n=6
Experimental: (§1) Tissues were micro-dissected in alpha-MEM (Gibco, Carlsbad, Calif.) with 1% penicillin-streptomycin (Invitrogen, Carlsbad, Calif.). Individual fimbriae were separated into ˜50 mm^3 pieces. A portion of the tissue was fixed in 2% paraformaldehyde for use as an uncultured control. For optimization studies, fimbriae were cultured without matrix, encapsulated in 0.5% alginate, or encapsulated in 0.5% alginate with 1 mg/ml collagen and 0.1% fibronectin, as previously described for murine cultures (King et al. J Vis Exp. 2011.; herein incorporated by reference in its entirety). For subsequent treatments, 0.5% alginate encapsulated fimbriae were randomly assigned to treatment groups, with at least five fimbriae per condition, per patient, in a 24-well plate containing alpha-MEM and 1% penicillin-streptomycin. […] Prior to fixation, fimbriae were labeled with 10 μM bromodeoxyurine (BrdU, Sigma-Aldrich) for 24 hours to denote proliferating cells. Fimbriae cultures were fixed (2% paraformaldehyde) followed by dehydration in ethanol and xylene, and embedment in paraffin.
Sections (5 μm) were cut and stained via hematoxylin and eosin for morphological analysis or immunohistochemistry was performed to localize proteins of interest as previously described (King et al. Endocr Relat Cancer. 2011. 18:627-42.; herein incorporated by reference in its entirety). Slides were rehydrated through an ethanol gradient, prior to 0.1M sodium citrate retrieval and peroxidase block. Tissues probed for BrdU were exposed to 4M HCl and 0.1M NaB4O7(Fisher Scientific) to denature DNA. All immunohistochemical reagents were obtained from Vector Laboratories, Inc (Burlingame, Calif.) unless otherwise stated. Tissues were blocked in 3% bovine serum albumin (Gemini, West Sacramento, Calif.)-TBS/10% serum and incubated with a primary antibody 1:50 acetylated tubulin (Cell Signaling, Cambridge, Mass.); 1:200 BrdU (AbCam, Cambridge, Mass.); 1:100 cytokeratin 8 (CK8, Developmental Studies Hybridoma Bank, Iowa City, Iowa); 1:50 p53 (Santa Cruz, Santa Cruz, Calif.); 1:100 PAX8 (Proteintech, Chicago, Ill.); 1:100 pH2AX (Cell Signaling); or 1:75 PR (Santa Cruz)) overnight at 4°. Tissues were washed in TBS-0.1% Tween and incubated with a secondary antibody (1:200), before being probed with ABC peroxidase standard, followed by detection with 3,3′-diaminobenzidine (DAB) and counterstained with hematoxylin.
Immunohistochemistry images were taken via a Nikon E600 microscope, DXM1200 digital camera and NIS Elements software (Nikon Instruments, Melville, N.Y.). For proliferation analysis, concurrent sections were stained for CK8 and BrdU. BrdU sections were imaged and epithelial cells (CK8 positive) were quantified for proliferation via ImageJ software (NIH, Bethesda, Md.). At least three fimbriae with 200 or more FTE were quantified for each treatment. […] Samples with p53 expression were quantified utilizing adjacent sections stained for the secretory cell marker PAX8 in a qualitative manner as described.

FGF2 = assay: ELISA of fallopian culture medium: FGF2; format: cell-based, human; settings: 10 nM E2, 7 days, n=6; not significantly altered
Experimental: as §1, with “Fimbriae cultures were fixed (2% paraformaldehyde) followed by dehydration in ethanol and xylene, and embedment in paraffin.” left out
IL8, VEGF-A, and FGF2 were detected in fallopian culture medium by enzyme-linked immunosorbent assay for human IL8 (EMD Millipore, Billerica, Mass., USA), VEGF-A (RayBiotech, GA, USA), or FGF2 (Abcam) respectively using the manufacturers' protocols. […] Results were normalized to total protein content as determined by western blotting and Ponceau staining to account for difference in tissue size between treatment groups. […]

p53 stabilization in FTE = assay: 3D human fimbriae culture: p53 immunohistochemistry; format: cell-based; settings: 2 and 7 days treatment, n=8
Experimental: as §1
Sections (5 μm) were cut and stained via hematoxylin and eosin for morphological analysis or immunohistochemistry was performed to localize proteins of interest as previously described (King et al. Endocr Relat Cancer. 2011. 18:627-42.; herein incorporated by reference in its entirety). Slides were rehydrated through an ethanol gradient, prior to 0.1M sodium citrate retrieval and peroxidase block. […]
Immunohistochemistry images were taken via a Nikon E600 microscope, DXM1200 digital camera and NIS Elements software (Nikon Instruments, Melville, N.Y.). […] BrdU sections were imaged and epithelial cells (CK8 positive) were quantified for proliferation via ImageJ software (NIH, Bethesda, Md.). At least three fimbriae with 200 or more FTE were quantified for each treatment. Analysis of p53 staining was similar, with at least three fimbriae per treatment, per patient analyzed. Samples with p53 expression were quantified utilizing adjacent sections stained for the secretory cell marker PAX8 in a qualitative manner as described.

With C[C@]12CC[C@@H]3c4ccc(O)cc4CC[C@H]3[C@@H]1CC[C@@H]2O [E2, estradiol] the “FTE proliferation (percentage of total FTE cells, BrdU)” value ([1]; 2 days in culture) was 5.2±2.3%, the “FTE proliferation (percentage of total FTE cells, BrdU)” value ([1]; 7 days in culture) was 2.4±0.5% and the “FGF2 decrease compared to vehicle control” value (FGF2) was 9%±8%. The p53 stabilization (p53 stabilization in FTE) was “no factor notably induced p53 stabilization”.
